# Experimental data published in patent US6806267B1, “Apoptosis-inducing compounds” (priority 1998, dated 2004).
# Where two headings read alike, the source gives them in different places.
# Key:
# Assay type in all cases: cell-based, human
# [1] = system: tyrosine phosphorylated proteins; assay: Protein tyrosine phosphorylation Western blot, Jurkat cells
# Procedure: (§1) Jurkat and CML cells (5×10^6) were harvested by centrifuigation at 1800 g for 10 min at 4° C. After being washed once with ice-cold phosphate-buffered saline, the cell pellet was suspended in 100 μl of ice-cold lysis buffer (50 mM Tris-HCl, pH 8.0, 150 mM NaCl, 0.1%.SDS, 1% Triton X-100, 1 mM sodium 1 mM phenylmethylsulfonyl, 10 ng/ml leupeptin and 10 ng/ml of aprotinin). The cells were left to sit on ice for 10 min and then centrifuged at 20,000 g for 20 min. The resulting supernatant was stored at −70° C. until measurement of tyrosine phosphorylation. Protein determination was measured by using the Bradford assay. Equal amounts of protein were resolved by SDS-polyacrylamide gel electrophoresis in 15% gels and transferred onto polyvinylidene difluoride (PVDF) membranes. Membranes were blocked with Tris-buffered saline with Tween 20 (10 mM Tris-HCl, pH 8.0, 150 mM NaCl, 0.05% Tween 20) containing 1% w/v BSA and probed with anti-phosphotyrosine antibody. Blots were washed, incubated with goat anti-mouse IgG peroxidase conjugate and developed by ECL according to the manufacturer's recommendations.
# caspase 3 = system: caspase 3
# Procedure: (§2) Cells (5×10^6 cells) were harvested by centrifugation, washing in ice-cold phosphate-buffered saline and the pellets resuspended in 200 μl of harvesting buffer (20 mM Hepes, pH 7.5, 10% (w/v) sucrose, 0.1% (w/v) CHAPS, 2 mM dithiotreitol, 0.1% (v/v) Nonidet NP40, 1 mM sodium EDTA and 1 mM phenylmethylsulfonyl fluoride) supplemented with protease inhibitors (1 μg/ml pepstatin A and 1 μg/ml leupeptin). Following incubation on ice for 10 min, samples were passed up and down 10 times through a 21 gauge needle. Following a further incubation on ice for 10 min the homogenates were centrifuged at 20,000 g for 20 min and the resulting supernatants used to measure caspase 3 activity. This enzyme activity was determined by a fluorometric assay using the substrate Ac-DEVD-AMC, which is cleaved by caspase 3 to release the fluorescent leaving group, amino-4-methyl coumarin (AMC). Enzyme extracts (50 μg) were incubated with 100 mM Hepes, pH 7.5, containing 10% (w/v) sucrose, 0.1% (w/v) CHAPS, 10 mM dithiotreitol and 20 μM substrate in a total reaction volume of 3 ml. Following incubation for 60 min at 25° C., fluorescence was monitored continuously using a spectrofluorimeter (excitation wavelength 380 nm, emission wavelength 460 nm). The amount of AMC released was determined by comparison with a standard curve generated with known amounts of AMC.
# caspase 3-like proteases = settings: HL-60 cells
# Procedure: as §2
# Cytochrome C = Cytochrome C Western blot, HL-60 cytosol; settings: HL-60 cells
# Procedure: Cells (15×10^6) were harvested by centrifugation at 1800 g for 10 min at 4° C. After being washed once with ice-cold phosphate-buffered saline, the cell pellet was suspended in 100 μl of ice-cold buffer A (20 mM Hepes, pH 7.5, 10 mM KCl, 1.5 mM MgCl2, 1 mM sodium EDTA, 1 mM sodium EGTA, 1 mM dithiotreitol and 0.1 mM phenylmethylsulfonyl fluoride) supplemented with protease inhibitors (5 μg/ml pepstatin A, 10 μg/ml leupeptin and 2 μg/ml of aprotinin). The cells were left to sit on ice for 15 min and then centrifuged at 20,000 g for 20 min. The resulting supernatant was stored at −70° C. until measurement of cytochrome C. Protein determination was measured by using the Bradford assay. Equal amounts of protein were resolved by SDS-polyacrylamide gel electrophoresis in 15% gels and transferred onto nitro-cellulose. Membranes were blocked with phosphate-buffered saline/5% (w/v) dry milk and probed with anti-cytochrome C antibody. Blots were washed, incubated with goat anti-mouse IgG peroxidase conjugate and developed by ECL according to the manufacturer's recommendations.
# [2] = system: tyrosine phosphorylated proteins; assay: Protein tyrosine phosphorylation Western blot, K562 cells
# Procedure: as §1
# [3] = system: CEM (T lymphoblastoid) cells; assay: Apoptosis in CEM cells (neo and Bcl-2 overexpressing)
# Jurkat cells = settings: 1 hour, then etoposide 16 hours
smiles,measurement,setting,value
"CN(C)C(=O)OC1=C(c2cccc3ccccc23)Oc2ccccc2-n2cccc21 [PBOX-6, 7-((Dimethylcarbamoyl)oxy)-6-(1-naphthyl)pyrrolo[2,1-d][1,5]benzoxazepine]",protein tyrosine phosphorylation,[1],time and dose-dependent decrease in protein tyrosine phosphorylation
same,caspase 3 activation,"caspase 3; K562 and Lama 84, 16 hours",activated
same,caspase 3 activation,caspase 3; KYO.1 cells,not detected
same,time at which caspase 3-like protease activity became evident,caspase 3-like proteases,6 h
same,activation of caspase 3-like proteases,caspase 3-like proteases; DEVD-AMC substrate,dose-dependent activation of caspase 3-like proteases
same,Cytochrome C in the cytosol,Cytochrome C,accumulation of Cytochrome C in the cytosol
same,tyrosine phosphorylation status of proteins,"[2]; K562, 5, 15 or 30 min",no effect
same,tyrosine phosphorylation status of proteins,"[2]; K562, 16 hours, proteins approx 63 kDa and 71 kDa",increase in the phosphorylation of two proteins
same,induction of apoptosis in CEM cells overexpressing Bcl-2,[3]; Bcl-2 overexpressing,dose-dependent induction of apoptosis
same,induction of apoptosis in normal CEM cells,[3]; normal (neo) CEM,dose-dependent induction of apoptosis
same,effect of pretreatment on etoposide induced apoptosis,Jurkat cells,does not protect against etoposide induced apoptosis
